Data reported in publication PMC10817917, “Alkyl deoxyglycoside-polymyxin combinations against critical priority carbapenem-resistant gram-negative bacteria” (Scientific Reports, 2024).
Converted amounts (≈) assume the structure as drawn. Like-named read-outs stand apart in the source and are kept apart here.

Legend:
[1] = test system: K. pneumoniae CQ1942; test: Broth microdilution MIC, glycosides with or without polymyxins; assay type: cell-based, Klebsiella pneumoniae
[2] = test system: P. aeruginosa CQ4924; test: as above; assay type: cell-based, Pseudomonas aeruginosa; settings: for MIC (antibiotic susceptibility profile) / RIS (susceptibility category): antibiotic alone; for MIC (antibiotic susceptibility profile) / RIS (susceptibility category) / MIC: strain H; for MIC: agent alone, no adjuvant (polymyxin conc. 0)
[3] = test system: K. pneumoniae CQ1947; test: as above; assay type: cell-based, Klebsiella pneumoniae
[4] = test system: K. pneumoniae CQ4921; test: Broth microdilution MIC/MBC, glycosides with or without polymyxins; assay type: cell-based, Klebsiella pneumoniae
[5] = test system: E. coli ATCC 25922; test: as above; assay type: cell-based, Escherichia coli
[6] = test system: A. baumannii CQ4322; test: as above; assay type: cell-based, Acinetobacter baumannii; settings: for MIC (antibiotic susceptibility profile) / RIS (susceptibility category): antibiotic alone; for MIC (antibiotic susceptibility profile) / RIS (susceptibility category) / MIC: strain G; for MIC: agent alone, no adjuvant (polymyxin conc. 0)
[7] = test system: E. cloacae CQ1941; test: as above; assay type: cell-based
[8] = test system: E. coli NCTC 13846; test: as above; assay type: cell-based, Escherichia coli; settings: strain B
[9] = test system: Caco-2 cells; test: Resazurin cell viability assay (cytotoxicity); assay type: cell-based, human; settings: tested alone (no polymyxin adjuvant); 72 h
Experimental: (§1) Cytotoxicity of each compound alone or in combination with different polymyxin concentrations was evaluated through the resazurin cell viability assay[49] in human embryonic HEK-293T cells, as well as in human colon adenocarcinoma Caco-2 cells, after a 72-h long incubation period.
(§2) HEK-293T and Caco-2 cells were grown in RPMI 1640 medium (VWR) supplemented with 10% FBS (Biowest), 1% PenStrep (Sigma Aldrich), and 1% glutamine (Biowest) in a humidified incubator at 37 °C with a 5% CO2 atmosphere. Twice a week, the medium was aspirated, the cells were washed with DPBS (VWR), trypsinized with trypsin–EDTA solution (Biowest), and resuspended in fresh culture medium. The dose-dependent effects of each glycoside or glycoside-polymyxin combination were evaluated by the resazurin cell viability assay. Polymyxins (colistin sulfate and PMB sulfate for microbiological assays, European Pharmacopoeia Reference Standards, Sigma-Aldrich) were firstly dissolved in sterilized Mili-Q water to a stock concentration of 1 mg/mL, while glycosides were dissolved in DMSO to a stock concentration of 30 mM. 1.5 × 10^4 cells/well in 96.5 µL of medium were seeded onto 96-well plates and incubated at 37 °C for 24 h. For each compound, ten stock dilutions (with concentrations from 750 to 75 µM) were prepared in fresh medium immediately prior to incubation. 16 µL of each dilution were added to each well so that the final glycoside concentrations ranged from 100 to 10 µM in each row in a final assay volume of 120 µL. In addition, the previously prepared polymyxin stock solutions were diluted in fresh medium, affording new stocks of 8, 4, and 2 µg/mL. The same volume (7.5 µL/well) of PMB or colistin was then added to each row to achieve a final polymyxin concentration of 0.5, 0.25, and 0.125 µg/mL, respectively, regardless of the glycoside concentration. In assays without polymyxin, the same volume (7.5 µL/well) of medium was added. In all assays, the maximum DMSO concentration was 0.33%. After a 72-h incubation at 37 °C, 12 µL of a 0.15 mg/mL resazurin (Sigma-Aldrich) in sterilized Mili-Q water were added to each well, and the plates were left incubating for another 4 h at 37 °C. Resorufin was measured at 570/600 nm, and the percentage of resazurin reduction, corresponding to the cell viability percentage, was calculated according to Eq. (1)[60]. IC50 values were obtained by best fitting the dose-dependent inhibition curves using the Prism 9® software. The results were expressed as the mean ± SD of three independent replicates, with only data from analysis with R^2 > 0.90 being considered.1 %Cellviability=Abssample-Absmediumcontrol/Abscellcontrol-Absmediumcontrol×100

[10] = test system: HEK-293T cells; test: Resazurin cell viability assay (cytotoxicity); assay type: cell-based, human; settings: tested alone (no polymyxin adjuvant); 72 h
Experimental: as §1, §2

[11] = test system: HEK-293 cells; set-up: method as in PMID 30532748; settings: polymyxin alone; cited from earlier work
[12] = Klebsiella pneumoniae, CQ1942, antibiotic alone, strain E, read-out: MIC (antibiotic susceptibility profile)
[13] = Klebsiella pneumoniae, CQ1947, antibiotic alone, strain F, read-out: MIC (antibiotic susceptibility profile)
[14] = Klebsiella pneumoniae, CQ4921, antibiotic alone, strain C, read-out: MIC (antibiotic susceptibility profile)
[15] = Escherichia coli, ATCC25922, antibiotic alone, strain A, read-out: MIC (antibiotic susceptibility profile)
[16] = Enterobacter cloacae, CQ1941, antibiotic alone, strain D, read-out: MIC (antibiotic susceptibility profile)
[17] = agent alone, no adjuvant (polymyxin conc. 0), strain E
[18] = agent alone, no adjuvant (polymyxin conc. 0), strain F
[19] = agent alone, no adjuvant (polymyxin conc. 0), strain C
[20] = agent alone, no adjuvant (polymyxin conc. 0), strain A
[21] = agent alone, no adjuvant (polymyxin conc. 0), strain D

C[C@@H](O)[C@H]1C(=O)N2C(C(=O)O)=C(SCCN=CN)C[C@H]12 [Imipenem, reference compound]
MIC [1, 12]: ≥ 128 µg/mL
MIC (antibiotic susceptibility profile) [2]: 16 µg/mL (≈ 53.4 µM)
MIC [3, 13]: 8 to 16 µg/mL (≈ 26.7 to 53.4 µM)
MIC [4, 14]: 4 µg/mL (≈ 13.4 µM)
MIC [5, 15]: 0.125 to 0.25 µg/mL (≈ 0.418 to 0.835 µM)
MIC (antibiotic susceptibility profile) [6]: 32 to 64 µg/mL
MIC [7, 16]: 16 µg/mL (≈ 53.4 µM)

CNC(C)C1CCC(N)C(OC2C(N)CC(N)C(OC3OCC(C)(O)C(NC)C3O)C2O)O1 (stereo not drawn) [Gentamicin, reference compound]
MIC [1, 12]: 1 µg/mL (≈ 2.09 µM)
MIC (antibiotic susceptibility profile) [2]: 2 µg/mL (≈ 4.19 µM)
RIS (susceptibility category) [2]: wt
MIC [3, 13]: 64 µg/mL (≈ 134 µM)
MIC [4, 14]: 0.25 to 0.5 µg/mL (≈ 0.523 to 1.05 µM)
MIC [5, 15]: 0.5 µg/mL (≈ 1.05 µM)
MIC (antibiotic susceptibility profile) [6]: 32 to 64 µg/mL
MIC [7, 16]: ≥ 128 µg/mL

CO/N=C(\C(=O)N[C@@H]1C(=O)N2C(C(=O)O)=C(COC(C)=O)CS[C@H]12)c1csc(N)n1 [Cefotaxime, reference compound]
MIC [1, 12]: ≥ 128 µg/mL
RIS (susceptibility category) [2]: ERP
MIC [3, 13]: ≥ 128 µg/mL
MIC [4, 14]: 2 µg/mL (≈ 4.39 µM)
RIS (susceptibility category) ([4]; antibiotic alone, strain C): I/R
MIC [5, 15]: 0.06 µg/mL (≈ 0.132 µM)
RIS (susceptibility category) [6]: ERP
MIC [7, 16]: ≥ 128 µg/mL

polymyxin B [PMB, reference compound]
MIC ([8]; agent alone, no adjuvant (polymyxin conc. 0)): 4 µg/mL
IC50 [9]: > 115 µg/mL
IC50 [10]: > 115 µg/mL
MIC [1, 17]: 0.5 µg/mL
MIC [2]: 1 µg/mL
MIC [3, 18]: 0.5 µg/mL
MIC [4, 19]: 0.5 µg/mL
MIC [5, 20]: 0.5 µg/mL
MIC [6]: 0.5 µg/mL
MIC [7, 21]: 0.5 µg/mL
IC50 [11]: > 500 µg/mL

C[C@@H](O)[C@H]1C(=O)N2C(C(=O)O)=C(S[C@@H]3CN[C@H](C(=O)N(C)C)C3)[C@H](C)[C@H]12 [Meropenem, reference compound]
MIC [1, 12]: ≥ 128 µg/mL
MIC (antibiotic susceptibility profile) [2]: 16 µg/mL (≈ 41.7 µM)
MIC [3, 13]: 16 to 32 µg/mL (≈ 41.7 to 83.4 µM)
MIC [4, 14]: 4 µg/mL (≈ 10.4 µM)
MIC [5, 15]: 0.016 to 0.03 µg/mL (≈ 0.0417 to 0.0782 µM)
MIC [7, 16]: 32 to 64 µg/mL (≈ 83.4 to 167 µM)

NCC[C@H](O)C(=O)N[C@@H]1C[C@H](N)[C@@H](O[C@H]2O[C@H](CN)[C@@H](O)[C@H](O)[C@H]2O)[C@H](O)[C@H]1O[C@H]1O[C@H](CO)[C@@H](O)[C@H](N)[C@H]1O [Amikacin, reference compound]
MIC [1, 12]: 16 µg/mL (≈ 27.3 µM)
MIC (antibiotic susceptibility profile) [2]: 4 µg/mL (≈ 6.83 µM)
MIC [3, 13]: 32 µg/mL (≈ 54.6 µM)
MIC [4, 14]: 0.5 to 2 µg/mL (≈ 0.854 to 3.42 µM)
MIC [5, 15]: 1 to 2 µg/mL (≈ 1.71 to 3.42 µM)
MIC (antibiotic susceptibility profile) [6]: ≥ 128 µg/mL
MIC [7, 16]: ≥ 128 µg/mL

colistin [reference compound]
MIC (antibiotic susceptibility profile) ([8]; antibiotic alone): 4 µg/mL
IC50 [9]: > 115 µg/mL
IC50 [10]: > 115 µg/mL
MIC [1, 17]: 0.5 µg/mL
MICB (MIC of colistin individually) ([1]; alone): 0.5 µg/mL
MIC (antibiotic susceptibility profile) ([1]; antibiotic alone, strain E): 0.125 to 1 µg/mL
MIC [2]: 1 µg/mL
MICB (MIC of colistin individually) ([2]; alone): 1 µg/mL
MIC (antibiotic susceptibility profile) [2]: 1 to 2 µg/mL
MIC [3, 18]: 0.5 µg/mL
MICB (MIC of colistin individually) ([3]; alone): 0.5 µg/mL
MIC (antibiotic susceptibility profile) ([3]; antibiotic alone, strain F): 0.125 to 1 µg/mL
MIC [4, 19]: 0.5 µg/mL
MICB (MIC of colistin individually) ([4]; alone): 0.5 µg/mL
MIC (antibiotic susceptibility profile) ([4]; antibiotic alone, strain C): 0.125 to 1 µg/mL
MIC [5, 20]: 0.5 µg/mL
MICB (MIC of colistin individually) ([5]; alone): 0.5 µg/mL
MIC (antibiotic susceptibility profile) ([5]; antibiotic alone, strain A): 0.5 to 1 µg/mL
MIC [6]: 0.5 µg/mL
MICB (MIC of colistin individually) ([6]; alone): 0.5 µg/mL
MIC (antibiotic susceptibility profile) [6]: 0.5 to 1 µg/mL
MIC [7, 21]: 0.5 µg/mL
MICB (MIC of colistin individually) ([7]; alone): 0.5 µg/mL
MIC (antibiotic susceptibility profile) ([7]; antibiotic alone, strain D): 0.125 to 1 µg/mL
IC50 [11]: > 1000 µg/mL

CC1(C)S[C@@H]2[C@H](NC(=O)[C@H](N)c3ccccc3)C(=O)N2[C@H]1C(=O)O [Ampicillin, reference compound]
MIC [1, 12]: ≥ 128 µg/mL
RIS (susceptibility category) [2]: ERP
MIC [3, 13]: ≥ 128 µg/mL
MIC [4, 14]: ≥ 128 µg/mL
MIC [5, 15]: 4 µg/mL (≈ 11.4 µM)
RIS (susceptibility category) [6]: ERP
MIC [7, 16]: ≥ 128 µg/mL

C[C@H]1[C@H](NC(=O)/C(=N\OC(C)(C)C(=O)O)c2csc(N)n2)C(=O)N1S(=O)(=O)O [Aztreonam, reference compound]
MIC [1, 12]: > 64 µg/mL
MIC [3, 13]: 0.25 µg/mL (≈ 0.574 µM)
RIS (susceptibility category) [6]: ERP
MIC [7, 16]: > 64 µg/mL

C[C@@H](O)[C@H]1C(=O)N2C(C(=O)O)=C(S[C@@H]3CN[C@H](C(=O)Nc4cccc(C(=O)O)c4)C3)[C@H](C)[C@H]12 [Ertapenem, reference compound]
MIC [1, 12]: ≥ 128 µg/mL
RIS (susceptibility category) [2]: ERP
MIC [3, 13]: 16 to 64 µg/mL (≈ 33.6 to 135 µM)
MIC [4, 14]: 8 to 64 µg/mL (≈ 16.8 to 135 µM)
MIC [5, 15]: 0.008 µg/mL (≈ 0.0168 µM)
RIS (susceptibility category) [6]: ERP
MIC [7, 16]: 64 µg/mL (≈ 135 µM)

NC[C@H]1O[C@H](O[C@H]2[C@H](O)[C@@H](O[C@H]3O[C@H](CO)[C@@H](O)[C@H](N)[C@H]3O)[C@H](N)C[C@@H]2N)[C@H](N)C[C@@H]1O [Tobramycin, reference compound]
MIC [1, 12]: 16 µg/mL (≈ 34.2 µM)
MIC (antibiotic susceptibility profile) [2]: 1 µg/mL (≈ 2.14 µM)
MIC [3, 13]: ≥ 128 µg/mL
MIC [4, 14]: 0.25 µg/mL (≈ 0.535 µM)
MIC [5, 15]: 0.5 µg/mL (≈ 1.07 µM)
MIC (antibiotic susceptibility profile) [6]: 32 µg/mL (≈ 68.4 µM)
MIC [7, 16]: ≥ 128 µg/mL

CC(C)(O/N=C(\C(=O)N[C@@H]1C(=O)N2C(C(=O)[O-])=C(C[n+]3ccccc3)CS[C@H]12)c1csc(N)n1)C(=O)O [Ceftazidime, reference compound]
MIC [1, 12]: ≥ 128 µg/mL
MIC (antibiotic susceptibility profile) [2]: 4 µg/mL (≈ 7.32 µM)
MIC [3, 13]: ≥ 128 µg/mL
MIC [4, 14]: 1 µg/mL (≈ 1.83 µM)
MIC [5, 15]: 0.125 to 0.25 µg/mL (≈ 0.229 to 0.457 µM)
MIC [7, 16]: ≥ 128 µg/mL

CC1(C)S[C@@H]2[C@H](NC(=O)[C@H](N)c3ccc(O)cc3)C(=O)N2[C@H]1C(=O)O [Amoxicillin, reference compound]
MIC [1, 12]: ≥ 128 µg/mL
RIS (susceptibility category) [2]: ERP
MIC [3, 13]: ≥ 128 µg/mL
MIC [4, 14]: ≥ 128 µg/mL
MIC [5, 15]: 4 µg/mL (≈ 10.9 µM)
RIS (susceptibility category) [6]: ERP
MIC [7, 16]: ≥ 128 µg/mL

CO/N=C(\C(=O)N[C@@H]1C(=O)N2C(C(=O)[O-])=C(C[N+]3(C)CCCC3)CS[C@H]12)c1csc(N)n1 [Cefepime, reference compound]
MIC [1, 12]: > 64 µg/mL
MIC [3, 13]: 32 µg/mL (≈ 66.6 µM)
MIC [5, 15]: 0.03 to 0.06 µg/mL (≈ 0.0624 to 0.125 µM)
MIC [7, 16]: > 64 µg/mL
